ChEMBL document CHEMBL4507259 (2021)

Key:
[1] = molecular target: Mitogen-activated protein kinase 3 (Homo sapiens) (UniProt P27361); details: Compound concentration 1000.0 nM
[2] = molecular target: Serine/threonine-protein kinase BRSK1 (Homo sapiens) (UniProt Q8TDC3); details: Compound concentration 1000.0 nM
[3] = molecular target: Calcium/calmodulin-dependent protein kinase kinase 1 (Homo sapiens) (UniProt Q8N5S9); details: Compound concentration 1000.0 nM
[4] = tested on: Epidermal growth factor receptor (Homo sapiens), P00533 [G719C]; details: Compound concentration 1000.0 nM
[5] = molecular target: Cyclin-dependent kinase 14 (Homo sapiens) (UniProt O94921); details: Compound concentration 1000.0 nM
[6] = molecular target: Serine/threonine-protein kinase PAK 3 (Homo sapiens) (UniProt O75914); details: Compound concentration 1000.0 nM
[7] = molecular target: Bone morphogenetic protein receptor type-2 (Homo sapiens) (UniProt Q13873); details: Compound concentration 1000.0 nM
[8] = molecular target: Tyrosine-protein kinase ABL1 (Homo sapiens) (UniProt P00519); details: Compound concentration 1000.0 nM
[9] = molecular target: Serine/threonine-protein kinase Nek1 (Homo sapiens) (UniProt Q96PY6); details: Compound concentration 1000.0 nM
[10] = molecular target: Ephrin type-A receptor 2 (Homo sapiens) (UniProt P29317); details: Compound concentration 1000.0 nM
[11] = molecular target: Sodium-dependent noradrenaline transporter (Homo sapiens) (UniProt P23975); assay: norepinephrine transporter (h) CEREP ligand profiling; details: filed as antagonist, Compound concentration 10.0 uM
[12] = molecular target: Serine/threonine-protein kinase SIK2 (Homo sapiens) (UniProt Q9H0K1); details: Compound concentration 1000.0 nM
[13] = molecular target: Dual specificity tyrosine-phosphorylation-regulated kinase 2 (Homo sapiens) (UniProt Q92630); details: Compound concentration 1000.0 nM
[14] = molecular target: Tyrosine-protein kinase ZAP-70 (Homo sapiens) (UniProt P43403); details: Compound concentration 1000.0 nM
[15] = molecular target: Fibroblast growth factor receptor 4 (Homo sapiens) (UniProt P22455); details: Compound concentration 1000.0 nM
[16] = molecular target: Serine/threonine-protein kinase DCLK3 (Homo sapiens) (UniProt Q9C098); details: Compound concentration 1000.0 nM
[17] = molecular target: Serine/threonine-protein kinase WNK3 (Homo sapiens) (UniProt Q9BYP7); details: Compound concentration 1000.0 nM
[18] = tested on: Tyrosine-protein kinase ABL1 (Homo sapiens), P00519 [E255K]; details: Compound concentration 1000.0 nM
[19] = molecular target: T1, Muscarinic acetylcholine receptor M1 (Homo sapiens) (UniProt P11229); details: Compound concentration 10.0 uM
T1 sequence (whole entry): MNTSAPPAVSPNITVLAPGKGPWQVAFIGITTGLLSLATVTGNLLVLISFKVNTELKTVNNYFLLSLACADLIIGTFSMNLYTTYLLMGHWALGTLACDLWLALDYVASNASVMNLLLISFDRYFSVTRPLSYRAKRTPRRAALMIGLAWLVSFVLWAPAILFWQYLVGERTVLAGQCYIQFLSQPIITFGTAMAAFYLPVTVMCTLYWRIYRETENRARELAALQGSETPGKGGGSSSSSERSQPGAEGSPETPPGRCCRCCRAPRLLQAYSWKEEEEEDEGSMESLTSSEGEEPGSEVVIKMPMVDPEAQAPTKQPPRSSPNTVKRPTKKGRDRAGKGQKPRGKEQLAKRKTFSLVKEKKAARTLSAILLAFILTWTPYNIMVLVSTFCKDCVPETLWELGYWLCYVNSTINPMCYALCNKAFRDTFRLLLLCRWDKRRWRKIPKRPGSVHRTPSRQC

[20] = molecular target: Ephrin type-B receptor 3 (Homo sapiens) (UniProt P54753); details: Compound concentration 1000.0 nM
[21] = molecular target: Tyrosine-protein kinase receptor TYRO3 (Homo sapiens) (UniProt Q06418); details: Compound concentration 1000.0 nM
[22] = molecular target: Serine/threonine-protein kinase 24 (Homo sapiens) (UniProt Q9Y6E0); details: Compound concentration 1000.0 nM
[23] = molecular target: Mitogen-activated protein kinase 12 (Homo sapiens) (UniProt P53778); details: Compound concentration 1000.0 nM
[24] = molecular target: Angiopoietin-1 receptor (Homo sapiens) (UniProt Q02763); details: Compound concentration 1000.0 nM
[25] = tested on: Tyrosine-protein kinase ABL1 (Homo sapiens), P00519 [T315I]; details: Compound concentration 1000.0 nM
[26] = molecular target: Non-receptor tyrosine-protein kinase TNK1 (Homo sapiens) (UniProt Q13470); details: Compound concentration 1000.0 nM
[27] = molecular target: Dual serine/threonine and tyrosine protein kinase (Homo sapiens) (UniProt Q6XUX3); details: Compound concentration 1000.0 nM
[28] = molecular target: Serine/threonine-protein kinase Sgk3 (Homo sapiens) (UniProt Q96BR1); details: Compound concentration 1000.0 nM
[29] = molecular target: Mitogen-activated protein kinase 9 (Homo sapiens) (UniProt P45984); details: Compound concentration 1000.0 nM
[30] = molecular target: Vascular endothelial growth factor receptor 3 (Homo sapiens) (UniProt P35916); details: Compound concentration 1000.0 nM
[31] = tested on: ALK tyrosine kinase receptor (Homo sapiens), Q9UM73 [C1156Y]; details: Compound concentration 1000.0 nM
[32] = molecular target: Mitogen-activated protein kinase kinase kinase 10 (Homo sapiens) (UniProt Q02779); details: Compound concentration 1000.0 nM
[33] = molecular target: Tyrosine-protein kinase Lyn (Homo sapiens) (UniProt P07948); details: Compound concentration 1000.0 nM
[34] = molecular target: 5'-AMP-activated protein kinase catalytic subunit alpha-2 (Homo sapiens) (UniProt P54646); details: Compound concentration 1000.0 nM

Chain of Serine/threonine-protein kinase PAK 3 (Homo sapiens) (O75914 whole entry, looked up): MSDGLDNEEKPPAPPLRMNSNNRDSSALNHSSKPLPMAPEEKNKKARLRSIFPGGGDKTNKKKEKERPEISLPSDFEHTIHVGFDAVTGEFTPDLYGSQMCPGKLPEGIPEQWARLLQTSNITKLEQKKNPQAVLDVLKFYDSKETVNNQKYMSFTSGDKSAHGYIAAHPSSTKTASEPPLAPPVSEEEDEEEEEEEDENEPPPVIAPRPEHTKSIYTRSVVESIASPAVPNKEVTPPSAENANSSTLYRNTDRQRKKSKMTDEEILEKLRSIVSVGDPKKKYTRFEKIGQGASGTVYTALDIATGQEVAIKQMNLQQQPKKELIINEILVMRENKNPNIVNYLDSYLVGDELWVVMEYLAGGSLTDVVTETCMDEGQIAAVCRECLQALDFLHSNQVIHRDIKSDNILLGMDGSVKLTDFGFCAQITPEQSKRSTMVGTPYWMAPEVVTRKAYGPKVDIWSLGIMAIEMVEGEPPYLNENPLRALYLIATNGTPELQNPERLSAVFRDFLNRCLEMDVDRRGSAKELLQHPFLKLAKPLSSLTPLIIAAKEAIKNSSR
Chain of Calcium/calmodulin-dependent protein kinase kinase 1 (Homo sapiens) (Q8N5S9 whole entry, looked up): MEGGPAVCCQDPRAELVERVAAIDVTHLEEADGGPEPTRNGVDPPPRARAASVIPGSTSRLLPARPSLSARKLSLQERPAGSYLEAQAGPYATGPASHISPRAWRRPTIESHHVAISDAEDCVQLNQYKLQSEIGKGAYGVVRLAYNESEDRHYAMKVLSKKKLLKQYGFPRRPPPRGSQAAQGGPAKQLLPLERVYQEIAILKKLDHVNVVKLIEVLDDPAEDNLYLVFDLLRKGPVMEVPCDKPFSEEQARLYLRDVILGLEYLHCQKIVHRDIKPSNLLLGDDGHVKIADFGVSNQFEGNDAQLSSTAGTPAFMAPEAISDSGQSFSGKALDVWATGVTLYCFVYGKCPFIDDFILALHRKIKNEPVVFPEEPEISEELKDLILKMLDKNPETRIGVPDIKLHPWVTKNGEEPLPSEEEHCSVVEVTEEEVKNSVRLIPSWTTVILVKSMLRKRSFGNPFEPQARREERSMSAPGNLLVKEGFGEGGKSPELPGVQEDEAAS
Chain of Tyrosine-protein kinase ZAP-70 (Homo sapiens) (P43403 whole entry): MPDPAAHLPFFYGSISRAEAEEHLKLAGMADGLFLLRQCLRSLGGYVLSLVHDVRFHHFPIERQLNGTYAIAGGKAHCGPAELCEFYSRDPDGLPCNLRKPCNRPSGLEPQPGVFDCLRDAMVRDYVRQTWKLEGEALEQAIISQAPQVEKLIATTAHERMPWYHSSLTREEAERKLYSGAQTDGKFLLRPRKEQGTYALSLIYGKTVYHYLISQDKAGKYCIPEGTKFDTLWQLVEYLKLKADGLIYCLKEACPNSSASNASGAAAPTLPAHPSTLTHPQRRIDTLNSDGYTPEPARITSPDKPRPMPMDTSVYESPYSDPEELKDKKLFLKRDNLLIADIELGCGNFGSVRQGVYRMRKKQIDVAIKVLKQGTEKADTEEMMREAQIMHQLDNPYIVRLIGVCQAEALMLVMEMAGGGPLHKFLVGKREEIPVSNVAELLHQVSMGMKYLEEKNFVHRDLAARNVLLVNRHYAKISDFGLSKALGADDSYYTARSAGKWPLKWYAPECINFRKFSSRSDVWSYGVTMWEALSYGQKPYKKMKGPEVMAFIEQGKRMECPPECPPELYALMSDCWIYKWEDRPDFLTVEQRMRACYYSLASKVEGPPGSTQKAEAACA
Chain of Serine/threonine-protein kinase 24 (Homo sapiens) (Q9Y6E0 whole entry, looked up): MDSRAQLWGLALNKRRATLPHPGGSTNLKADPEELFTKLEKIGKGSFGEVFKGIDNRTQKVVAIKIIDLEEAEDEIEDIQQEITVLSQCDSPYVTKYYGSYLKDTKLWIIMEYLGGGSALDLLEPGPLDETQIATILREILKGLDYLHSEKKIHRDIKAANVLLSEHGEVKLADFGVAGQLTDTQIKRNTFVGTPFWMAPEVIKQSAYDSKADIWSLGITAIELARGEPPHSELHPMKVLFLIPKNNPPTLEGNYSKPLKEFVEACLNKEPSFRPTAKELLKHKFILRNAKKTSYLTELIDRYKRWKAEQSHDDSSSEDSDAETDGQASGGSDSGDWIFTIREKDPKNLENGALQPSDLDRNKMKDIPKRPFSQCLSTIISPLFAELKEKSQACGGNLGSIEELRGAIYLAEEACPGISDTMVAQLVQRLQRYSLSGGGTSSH
Chain of Ephrin type-B receptor 3 (Homo sapiens) (P54753 whole entry): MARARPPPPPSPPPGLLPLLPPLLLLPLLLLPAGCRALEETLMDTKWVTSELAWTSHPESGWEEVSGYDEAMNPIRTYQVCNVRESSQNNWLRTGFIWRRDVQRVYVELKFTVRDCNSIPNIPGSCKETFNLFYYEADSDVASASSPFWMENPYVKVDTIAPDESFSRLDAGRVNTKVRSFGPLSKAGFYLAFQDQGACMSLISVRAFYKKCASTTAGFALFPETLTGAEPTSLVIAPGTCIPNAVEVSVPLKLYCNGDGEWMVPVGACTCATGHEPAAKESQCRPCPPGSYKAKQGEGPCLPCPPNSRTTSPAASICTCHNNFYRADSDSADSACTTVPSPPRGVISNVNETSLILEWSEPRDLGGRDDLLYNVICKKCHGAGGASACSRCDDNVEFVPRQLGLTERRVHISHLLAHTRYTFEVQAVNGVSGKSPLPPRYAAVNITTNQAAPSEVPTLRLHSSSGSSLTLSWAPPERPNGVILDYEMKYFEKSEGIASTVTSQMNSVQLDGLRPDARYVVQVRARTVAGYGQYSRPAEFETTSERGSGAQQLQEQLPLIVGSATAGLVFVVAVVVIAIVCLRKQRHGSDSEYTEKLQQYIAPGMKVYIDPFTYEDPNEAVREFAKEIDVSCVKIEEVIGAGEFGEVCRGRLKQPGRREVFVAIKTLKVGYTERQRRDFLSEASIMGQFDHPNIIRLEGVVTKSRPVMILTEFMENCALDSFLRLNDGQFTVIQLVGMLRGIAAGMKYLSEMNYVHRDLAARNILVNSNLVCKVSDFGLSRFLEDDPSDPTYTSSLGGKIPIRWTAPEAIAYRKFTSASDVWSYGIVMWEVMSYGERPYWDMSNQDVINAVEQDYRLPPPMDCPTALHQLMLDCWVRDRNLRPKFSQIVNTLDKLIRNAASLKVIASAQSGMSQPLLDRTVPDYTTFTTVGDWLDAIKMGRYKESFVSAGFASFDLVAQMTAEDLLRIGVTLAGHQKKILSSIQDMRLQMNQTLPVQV
Chain of Dual serine/threonine and tyrosine protein kinase (Homo sapiens) (Q6XUX3 whole entry): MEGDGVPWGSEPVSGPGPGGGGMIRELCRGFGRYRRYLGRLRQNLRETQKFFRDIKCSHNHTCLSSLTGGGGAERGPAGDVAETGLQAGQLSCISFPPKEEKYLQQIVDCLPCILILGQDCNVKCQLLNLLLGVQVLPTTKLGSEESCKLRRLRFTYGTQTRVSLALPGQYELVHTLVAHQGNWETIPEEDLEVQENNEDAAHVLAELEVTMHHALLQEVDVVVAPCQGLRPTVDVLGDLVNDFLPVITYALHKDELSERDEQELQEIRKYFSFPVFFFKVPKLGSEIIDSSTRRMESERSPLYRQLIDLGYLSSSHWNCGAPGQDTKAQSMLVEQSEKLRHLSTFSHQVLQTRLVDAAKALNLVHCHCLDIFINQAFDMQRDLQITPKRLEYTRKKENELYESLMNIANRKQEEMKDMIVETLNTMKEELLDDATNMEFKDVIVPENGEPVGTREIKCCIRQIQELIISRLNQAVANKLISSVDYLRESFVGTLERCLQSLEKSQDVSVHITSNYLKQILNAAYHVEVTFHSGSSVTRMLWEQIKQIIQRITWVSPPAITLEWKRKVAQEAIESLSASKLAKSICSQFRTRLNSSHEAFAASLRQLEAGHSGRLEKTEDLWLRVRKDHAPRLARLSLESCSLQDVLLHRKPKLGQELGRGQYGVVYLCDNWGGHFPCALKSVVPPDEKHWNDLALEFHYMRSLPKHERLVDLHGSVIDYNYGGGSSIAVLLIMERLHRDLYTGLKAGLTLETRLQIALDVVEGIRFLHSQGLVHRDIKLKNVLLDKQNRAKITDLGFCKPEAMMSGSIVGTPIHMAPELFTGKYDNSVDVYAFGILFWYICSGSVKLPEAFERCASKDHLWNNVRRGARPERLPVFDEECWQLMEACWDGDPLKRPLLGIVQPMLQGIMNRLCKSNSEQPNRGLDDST
Chain of Tyrosine-protein kinase Lyn (Homo sapiens) (P07948 2-512 limits assumed): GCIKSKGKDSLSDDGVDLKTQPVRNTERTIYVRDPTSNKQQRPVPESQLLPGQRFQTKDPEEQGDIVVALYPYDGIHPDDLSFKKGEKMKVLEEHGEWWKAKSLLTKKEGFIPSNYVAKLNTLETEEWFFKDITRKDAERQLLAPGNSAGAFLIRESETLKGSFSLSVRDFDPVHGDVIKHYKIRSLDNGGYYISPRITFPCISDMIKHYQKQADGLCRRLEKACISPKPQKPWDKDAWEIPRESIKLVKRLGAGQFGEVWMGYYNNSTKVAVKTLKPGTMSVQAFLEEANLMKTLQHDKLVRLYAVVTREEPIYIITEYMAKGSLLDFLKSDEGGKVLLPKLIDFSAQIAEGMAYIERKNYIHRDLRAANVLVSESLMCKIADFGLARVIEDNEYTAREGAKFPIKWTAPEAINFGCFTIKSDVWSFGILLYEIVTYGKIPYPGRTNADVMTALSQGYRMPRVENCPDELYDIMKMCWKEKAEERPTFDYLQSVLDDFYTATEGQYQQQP
Chain of Mitogen-activated protein kinase 12 (Homo sapiens) (P53778 whole entry): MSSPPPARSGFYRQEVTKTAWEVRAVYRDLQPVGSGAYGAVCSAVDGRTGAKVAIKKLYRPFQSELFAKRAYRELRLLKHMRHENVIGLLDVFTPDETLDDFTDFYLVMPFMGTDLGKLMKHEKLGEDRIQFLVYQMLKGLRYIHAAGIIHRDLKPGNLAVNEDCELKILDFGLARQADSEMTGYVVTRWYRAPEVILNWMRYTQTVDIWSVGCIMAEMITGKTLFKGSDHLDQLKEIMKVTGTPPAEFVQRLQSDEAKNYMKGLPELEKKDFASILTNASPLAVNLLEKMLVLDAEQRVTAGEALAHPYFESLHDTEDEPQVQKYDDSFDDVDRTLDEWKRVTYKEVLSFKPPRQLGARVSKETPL

CNC(=O)Nc1ccc2c(c1)CC[C@@]21OC(=O)N(CC(=O)N(Cc2ccc(F)cc2)[C@@H](C)C(F)(F)F)C1=O [A-485]
inactive: residual activity [1] 92% | residual activity [2] 97% | residual activity [3] 70% | residual activity [4] 97% | residual activity [5] 79% | residual activity [6] 91% | residual activity [7] 100% | residual activity [8] 72% | residual activity [9] 100% | residual activity [10] 76% | inhibition [11] 12% | residual activity [12] 88% | residual activity [13] 88% | residual activity [14] 73% | residual activity [15] 100% | residual activity [16] 83% | residual activity [17] 83% | residual activity [18] 75% | inhibition [19] 2.64% | residual activity [20] 80% | residual activity [21] 81% | residual activity [22] 90% | residual activity [23] 63% | residual activity [24] 87% | residual activity [25] 100% | residual activity [26] 86% | residual activity [27] 78% | residual activity [28] 68% | residual activity [29] 70% | residual activity [30] 89% | residual activity [31] 88% | residual activity [32] 57% | residual activity [33] 89% | residual activity [34] 99%

CNC(=O)Nc1ccc2c(c1)[C@@]1(CC2)OC(=O)N(CC(=O)N(Cc2ccc(F)cc2)[C@@H](C)C(F)(F)F)C1=O [A-486]
inactive: residual activity [1] 100% | residual activity [2] 100% | residual activity [3] 100% | residual activity [4] 100% | residual activity [5] 100% | residual activity [6] 91% | residual activity [7] 100% | residual activity [8] 84% | residual activity [9] 100% | residual activity [10] 100% | inhibition [11] 4% | residual activity [12] 88% | residual activity [13] 92% | residual activity [14] 100% | residual activity [15] 98% | residual activity [16] 81% | residual activity [17] 63% | residual activity [18] 100% | inhibition [19] 5.42% | residual activity [20] 86% | residual activity [21] 70% | residual activity [22] 100% | residual activity [23] 96% | residual activity [24] 100% | residual activity [25] 87% | residual activity [26] 100% | residual activity [27] 89% | residual activity [28] 72% | residual activity [29] 69% | residual activity [30] 100% | residual activity [31] 100% | residual activity [32] 73% | residual activity [33] 100% | residual activity [34] 57%
